Data: patent publication US20020137929A1, “1 - (3-heterocyclylphenyl) isothiourea, -isourea, -guanidine and -amidine herbicidal agents” (Intellectual Property Department, BASF Aktiengesellschaft, priority 1998, published 2002)

Columns and labels:
[1] = system: AMBEL (Ragweed, Common); experiment: Postemergence herbicidal evaluation; assay type: in vivo, Ambrosia artemisifolia; conditions: for AMBEL herbicidal rating: postemergence
Summary of the method: (§1)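 ~2-wk seedlings; postemergence spray, 40 psi; vehicle 1:1 acetone:water + 0.5% Tween 20; rate ≈0.0156–0.500 kg/ha; greenhouse hold; scored 4–5 wk after treatment, 0–9 scale vs control; repeat tests averaged.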

[2] = system: GLXMAW (Soybean, Williams); experiment: Postemergence herbicidal evaluation; assay type: in vivo, Glycine max, (L.) Merr. cv Williams; conditions: for GLXMAW herbicidal rating: postemergence
Summary of the method: as §1

[3] = system: TRZAWR (Wheat, Winter, cv Riband); experiment: Postemergence herbicidal evaluation; assay type: in vivo, Triticum aestivum; conditions: for TRZAWR herbicidal rating: postemergence
Summary of the method: as §1

[4] = system: MOOVA (Monochoria); experiment: Preemergence weed control under flooded paddy conditions; assay type: in vivo, Monochoria vaginalis; conditions: rated 3-4 weeks after treatment
Summary of the method: (§2)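 Seeds or propagules sown in top 0.5 cm of silt loam soil, flooded 1.5 to 3 cm above surface throughout. Compound in 50/50 v/v aqueous/acetone pipetted into flood water at about 0.0313 to 0.500 kg/ha. Visual 0-9 rating versus control after three to four weeks in greenhouse.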

[5] = system: ABUTH (Velvetleaf); experiment: Preemergence herbicidal evaluation; assay type: in vivo, Abutilon theophrasti; conditions: rated 4-5 weeks after treatment; for ABUTH rating: preemergence, 0-9 scale
Summary of the method: (§3)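 Rating at 4–5 wk post-spray on a 0–9 visual scale vs control. Application: aqueous acetone, ~0.0156–0.500 kg/ha, to soil surface after seeding, preemergence.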

[6] = system: SAGPY (Arrowhead (Pygmaea)); experiment: Postemergence weed control under flooded paddy conditions; assay type: in vivo, Sagittaria pygmaea; conditions: postemergence weeds
Summary of the method: (§4)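 Containers holding 3–5 cm weeds and rice at 1.5–2.5 leaves are flooded to 1.5–3 cm above soil. Compound in 50/50 v/v aqueous/acetone is then added directly to the water, about 0.0313–0.500 kg/ha. Plants are kept in the greenhouse and rated 0–9 visually at 3–4 weeks.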

[7] = system: ABUTH (Velvetleaf); experiment: Postemergence herbicidal evaluation; assay type: in vivo, Abutilon theophrasti; conditions: for ABUTH herbicidal rating: postemergence
Summary of the method: as §1

[8] = system: ORYSAT (Rice, Tebonnet); experiment: Postemergence herbicidal evaluation; assay type: in vivo, Oryza sativa, (L.) Tebonnet; conditions: for ORYSAT herbicidal rating: postemergence
Summary of the method: as §1

[9] = system: SETVI (Foxtail, Green); experiment: Preemergence herbicidal evaluation; assay type: in vivo, Setaria viridis; conditions: rated 4-5 weeks after treatment; for SETVI rating: preemergence, 0-9 scale
Summary of the method: as §3

[10] = system: CYPIR (Rice Flatsedge); experiment: Postemergence weed control under flooded paddy conditions; assay type: in vivo, Cyperus iria; conditions: postemergence weeds
Summary of the method: as §4

[11] = system: SAGPY (Arrowhead (Pygmaea)); experiment: Preemergence weed control under flooded paddy conditions; assay type: in vivo, Sagittaria pygmaea; conditions: rated 3-4 weeks after treatment
Summary of the method: as §2

[12] = system: CASOB (Sicklepod); experiment: Preemergence herbicidal evaluation; assay type: in vivo, Cassia obtusifolia; conditions: rated 4-5 weeks after treatment; for CASOB rating: preemergence, 0-9 scale
Summary of the method: as §3

[13] = system: ECHCG (Barnyardgrass); experiment: Postemergence herbicidal evaluation; assay type: in vivo, Echinochloa crus-galli; conditions: for ECHCG herbicidal rating: postemergence
Summary of the method: as §1

[14] = system: SETVI (Foxtail, Green); experiment: Postemergence herbicidal evaluation; assay type: in vivo, Setaria viridis; conditions: for SETVI herbicidal rating: postemergence
Summary of the method: as §1

[15] = rate 0.0313 kg/ha, 3-4 weeks after treatment
[16] = rate 0.0625 kg/ha, 3-4 weeks after treatment
[17] = rate 0.1250 kg/ha, 3-4 weeks after treatment
[18] = rate 0.2500 kg/ha, 3-4 weeks after treatment
[19] = Rate 0.0313 kg/ha, rated 3 to 4 weeks after treatment
[20] = Rate 0.0625 kg/ha, rated 3 to 4 weeks after treatment
[21] = Rate 0.1250 kg/ha, rated 3 to 4 weeks after treatment
[22] = Rate 0.2500 kg/ha, rated 3 to 4 weeks after treatment

## CCOC(=O)CN1C(=O)CS(=O)(=O)C1=Nc1cc(-n2c(=O)cc(C(F)(F)F)n(C)c2=O)c(F)cc1Cl [Compound 46, 2-{{2-Chloro-5-[3,6-dihydro-3-methyl-2,6-dioxo-4-(trifluoromethyl)-1(2H)-pyrimidinyl]-4-fluoro-phenyl}imino}-4-oxo-3-thiazolidineacetic acid, ethyl ester, 1,1-dioxide]
[1]; Rate 0.0313 kg/ha
  Postemergence herbicidal rating AMBEL: 0.0
[1]; Rate 0.0625 kg/ha
  Postemergence herbicidal rating AMBEL: 5.0
[2]; Rate 0.0313 kg/ha
  Postemergence herbicidal rating GLXMAW: 5.0
[2]; Rate 0.0625 kg/ha
  Postemergence herbicidal rating GLXMAW: 5.5
[3]; Rate 0.0313 kg/ha
  Postemergence herbicidal rating TRZAWR: 2.0
[3]; Rate 0.0625 kg/ha
  Postemergence herbicidal rating TRZAWR: 3.0
[4]; 0.0313 kg/ha
  Herbicidal rating MOOVA: 3.0
[4]; 0.0625 kg/ha
  Herbicidal rating MOOVA: 4.0
[4]; 0.1250 kg/ha
  Herbicidal rating MOOVA: 6.0
[4]; 0.2500 kg/ha
  Herbicidal rating MOOVA: 7.0
[5]; rate 0.1250 kg/ha
  Preemergence herbicidal rating ABUTH: 9.0
[5]; rate 0.2500 kg/ha
  Preemergence herbicidal rating ABUTH: 9.0
[6]; [15]
  Herbicidal rating SAGPY: 0.0
[6]; [16]
  Herbicidal rating SAGPY: 0.0
[6]; [17]
  Herbicidal rating SAGPY: 0.0
[6]; [18]
  Herbicidal rating SAGPY: 3.0
[7]; Rate 0.0313 kg/ha
  Postemergence herbicidal rating ABUTH: 4.0
[7]; Rate 0.0625 kg/ha
  Postemergence herbicidal rating ABUTH: 9.0
[8]; Rate 0.0313 kg/ha
  Postemergence herbicidal rating ORYSAT: 1.0
[8]; Rate 0.0625 kg/ha
  Postemergence herbicidal rating ORYSAT: 1.5
[9]; rate 0.1250 kg/ha
  Preemergence herbicidal rating SETVI: 0.0
[9]; rate 0.2500 kg/ha
  Preemergence herbicidal rating SETVI: 0.0
[10]; [15]
  Herbicidal rating CYPIR: 0.0
[10]; [16]
  Herbicidal rating CYPIR: 0.0
[10]; [17]
  Herbicidal rating CYPIR: 0.0
[10]; [18]
  Herbicidal rating CYPIR: 0.0
[11]; 0.0313 kg/ha
  Herbicidal rating SAGPY: 0.0
[11]; 0.0625 kg/ha
  Herbicidal rating SAGPY: 0.0
[11]; 0.1250 kg/ha
  Herbicidal rating SAGPY: 0.0
[11]; 0.2500 kg/ha
  Herbicidal rating SAGPY: 3.0
[12]; rate 0.1250 kg/ha
  Preemergence herbicidal rating CASOB: 0.0
[12]; rate 0.2500 kg/ha
  Preemergence herbicidal rating CASOB: 0.0
[13]; Rate 0.0313 kg/ha
  Postemergence herbicidal rating ECHCG: 0.0
[13]; Rate 0.0625 kg/ha
  Postemergence herbicidal rating ECHCG: 0.0
[14]; Rate 0.0313 kg/ha
  Postemergence herbicidal rating SETVI: 0.0
[14]; Rate 0.0625 kg/ha
  Postemergence herbicidal rating SETVI: 0.0

## CCOC(=O)CN1C(=O)C(CC(=O)NOC)SC1=Nc1cc(-n2c(=O)cc(C(F)(F)F)n(C)c2=O)c(F)cc1Cl (centres unmarked) [Compound 83, Ethyl 2-{{2-chloro-5-[3,6-dihydro-3-methyl-2,6-dioxo-4-(trifluoromethyl)-1(2H)-pyrimidinyl]-4-fluorophenyl}imino}-5-[(methoxycarbamoyl)methyl]-4-oxo-3-thiazolidineacetate]
[1]; rate 0.0156 kg/ha
  AMBEL herbicidal rating: 9.0
[1]; rate 0.0313 kg/ha
  AMBEL herbicidal rating: 9.0
[1]; rate 0.0625 kg/ha
  AMBEL herbicidal rating: 9.0
[1]; rate 0.1250 kg/ha
  AMBEL herbicidal rating: 9.0
[2]; rate 0.0156 kg/ha
  GLXMAW herbicidal rating: 4.5
[2]; rate 0.0313 kg/ha
  GLXMAW herbicidal rating: 6.5
[2]; rate 0.0625 kg/ha
  GLXMAW herbicidal rating: 8.0
[2]; rate 0.1250 kg/ha
  GLXMAW herbicidal rating: 8.5
[3]; rate 0.0156 kg/ha
  TRZAWR herbicidal rating: 3.5
[3]; rate 0.0313 kg/ha
  TRZAWR herbicidal rating: 4.0
[3]; rate 0.0625 kg/ha
  TRZAWR herbicidal rating: 4.5
[3]; rate 0.1250 kg/ha
  TRZAWR herbicidal rating: 6.5
[4]; 0.0313 kg/ha
  MOOVA herbicidal effect rating: 9.0
[4]; 0.0625 kg/ha
  MOOVA herbicidal effect rating: 9.0
[4]; 0.1250 kg/ha
  MOOVA herbicidal effect rating: 9.0
[4]; 0.2500 kg/ha
  MOOVA herbicidal effect rating: 9.0
[5]; 0.0156 kg/ha
  ABUTH rating: 4.0
[5]; 0.0313 kg/ha
  ABUTH rating: 6.0
[5]; 0.0625 kg/ha
  ABUTH rating: 9.0
[5]; 0.1250 kg/ha
  ABUTH rating: 9.0
[5]; 0.2500 kg/ha
  ABUTH rating: 9.0
[5]; 0.5000 kg/ha
  ABUTH rating: 9.0
[6]; [19]
  Herbicidal rating SAGPY: 7.0
[6]; [20]
  Herbicidal rating SAGPY: 7.0
[6]; [21]
  Herbicidal rating SAGPY: 7.0
[6]; [22]
  Herbicidal rating SAGPY: 9.0
[7]; rate 0.0156 kg/ha
  ABUTH herbicidal rating: 9.0
[7]; rate 0.0313 kg/ha
  ABUTH herbicidal rating: 9.0
[7]; rate 0.0625 kg/ha
  ABUTH herbicidal rating: 9.0
[7]; rate 0.1250 kg/ha
  ABUTH herbicidal rating: 9.0
[8]; rate 0.0156 kg/ha
  ORYSAT herbicidal rating: 1.5
[8]; rate 0.0313 kg/ha
  ORYSAT herbicidal rating: 2.5
[8]; rate 0.0625 kg/ha
  ORYSAT herbicidal rating: 3.0
[8]; rate 0.1250 kg/ha
  ORYSAT herbicidal rating: 3.0
[9]; 0.0156 kg/ha
  SETVI rating: 0.0
[9]; 0.0313 kg/ha
  SETVI rating: 0.0
[9]; 0.0625 kg/ha
  SETVI rating: 0.0
[9]; 0.1250 kg/ha
  SETVI rating: 2.0
[9]; 0.2500 kg/ha
  SETVI rating: 9.0
[9]; 0.5000 kg/ha
  SETVI rating: 9.0
[10]; [19]
  Herbicidal rating CYPIR: 5.0
[10]; [20]
  Herbicidal rating CYPIR: 6.0
[10]; [21]
  Herbicidal rating CYPIR: 6.0
[10]; [22]
  Herbicidal rating CYPIR: 7.0
[11]; 0.0313 kg/ha
  SAGPY herbicidal effect rating: 7.0
[11]; 0.0625 kg/ha
  SAGPY herbicidal effect rating: 7.0
[11]; 0.1250 kg/ha
  SAGPY herbicidal effect rating: 7.0
[11]; 0.2500 kg/ha
  SAGPY herbicidal effect rating: 9.0
[12]; 0.0156 kg/ha
  CASOB rating: 0.0
[12]; 0.0313 kg/ha
  CASOB rating: 0.0
[12]; 0.0625 kg/ha
  CASOB rating: 0.0
[12]; 0.1250 kg/ha
  CASOB rating: 0.0
[12]; 0.2500 kg/ha
  CASOB rating: 3.0
[12]; 0.5000 kg/ha
  CASOB rating: 3.0
[13]; rate 0.0156 kg/ha
  ECHCG herbicidal rating: 0.0
[13]; rate 0.0313 kg/ha
  ECHCG herbicidal rating: 2.0
[13]; rate 0.0625 kg/ha
  ECHCG herbicidal rating: 4.0
[13]; rate 0.1250 kg/ha
  ECHCG herbicidal rating: 9.0
[14]; rate 0.0156 kg/ha
  SETVI herbicidal rating: 0.0
[14]; rate 0.0313 kg/ha
  SETVI herbicidal rating: 2.0
[14]; rate 0.0625 kg/ha
  SETVI herbicidal rating: 8.0
[14]; rate 0.1250 kg/ha
  SETVI herbicidal rating: 8.0
